# Laboratory results as given in the OPERA property sets (Mansouri et al. 2018).
# Conditions: for log10 BCF / log10 biotransformation half-life (days): fish
SMILES,melting point,boiling point,further results
C1=CC(c2ccc(C3CC=CCC3)cc2)CCC1 (stereo not drawn),–,–,ready biodegradability: not readily biodegradable
Oc1ccc2cc(O)ccc2c1,220 °C,–,–
O=S(=O)(O)CCNC1CCCCC1,320 °C,–,–
CCCCCCC#CC(=O)O,-8 °C,–,–
O=S(=O)(O)OCCOc1ccc(Cl)cc1Cl,170 °C,–,–
Cc1ccc(C(C)C)cc1,-68.5 °C,177 °C,log10 vapour pressure (mmHg): 0.19; ready biodegradability: readily biodegradable
O=C(O)c1ccccc1C(F)(F)F,111 °C,–,–
COc1cc(OC)nc(Oc2cccc(Oc3nc(OC)cc(OC)n3)c2C(=O)ON=C(c2ccccc2)c2ccccc2)n1,129 °C,–,–
F[Si](F)(F)c1ccccc1,-18 °C,102 °C,–
FCCl,-133 °C,-9.1 °C,log10 vapour pressure (mmHg): 3.39
O=[N+]([O-])c1cccc(S(=O)(=O)[O][Na])c1,–,–,log10 BCF: 0.7
N#Cc1cccc(F)c1,-16 °C,182 °C,–
C#Cc1ccc(C)cc1,–,169 °C,–
CC(F)(F)CC(F)(F)F,–,40 °C,–
CC1CN(C)CCN1C (stereo not drawn),–,150 °C,–
Cc1cccc(C)c1OCC(C)N (stereo not drawn),204 °C,–,–
CC[C@H]1CC[C@H](C)NC1,–,–,log10 vapour pressure (mmHg): 0.458
NN(c1ccccc1)c1ccccc1,50.5 °C,–,log10 vapour pressure (mmHg): -3.31
CCCc1ccc(O)cc1O,82.5 °C,–,–
FC=C(F)F,–,-51 °C,–
CC(=O)OC(OC(C)=O)c1ccccc1,46 °C,220 °C,–
Cc1ccc(Br)s1,–,178 °C,–
CC12CCC(CC1=NO)C2(C)C (stereo not drawn),118 °C,–,–
COC(=O)c1c[nH]c2ccccc12,150 °C,–,–
Oc1cc(Br)cc(Br)c1,81 °C,274 °C,–

SMILES,melting point,boiling point,further results
O=C(CBr)OCC=CCOC(=O)CBr,–,–,ready biodegradability: readily biodegradable
CCNc1ccccc1C,–,216 °C,–
N#CCCN,–,185 °C,log10 vapour pressure (mmHg): -0.0655
COc1cc(OC)c2ccc(=O)oc2c1,149 °C,–,–
CC#CCCCCC,-61.6 °C,138 °C,log10 vapour pressure (mmHg): 0.875
Oc1ccc2c(c1)CCC2,58 °C,253 °C,log10 Koc (L/kg): 3.4
CCCCCCCCCCCC(=O)OC,5.2 °C,267 °C,log10 vapour pressure (mmHg): -2.39; ready biodegradability: readily biodegradable
Clc1cc(-c2cc(Cl)c(Cl)c(Cl)c2Cl)cc(Cl)c1Cl,–,–,log10 biotransformation half-life (days): 2.32
COP(=S)(OC)SCC(=O)N(C)C=O,25.5 °C,–,log10 vapour pressure (mmHg): -6.07
c1ccc2c(c1)ccc1ccccc12,99.2 °C,340 °C,log10 Henry constant (atm·m³/mol): -4.37; log10 Koa: 7.57; log10 Koc (L/kg): 4.35; log10 biodegradation half-life (days): 1.62; log10 vapour pressure (mmHg): -3.92; ready biodegradability: readily biodegradable; log10 BCF: 3.4; log10 biotransformation half-life (days): 0.7
Cc1ccc(-c2cc(C(F)(F)F)nn2-c2ccc(S(N)(=O)=O)cc2)cc1,158 °C,–,–
CCCCC(=O)CCC,–,163 °C,–
Nc1c(F)c(F)c(F)c(F)c1F,35.5 °C,153 °C,–
COc1cc(OC)nc(Sc2cccc(Cl)c2C(=O)[O-])n1.[Na+],248 °C,–,–
O=P(OCC(Br)CBr)(OCC(Br)CBr)OCC(Br)CBr (stereo not drawn),5.5 °C,–,ready biodegradability: readily biodegradable; log10 BCF: 0.51
C1COCOC1,-45 °C,106 °C,–
CCOCCOCC,-74 °C,119 °C,log10 vapour pressure (mmHg): 1.53
O=Cc1cccc(O)c1O,108 °C,235 °C,–
Clc1ccc2ncccc2c1,43.8 °C,263 °C,–
CNC(=C[N+](=O)[O-])NCCSCc1csc(CN(C)C)n1,131 °C,–,–
CCC(=O)CO,–,160 °C,–
CC/C(=C(/CC)c1ccc(O)cc1)c1ccc(O)cc1,–,–,log10 Koc (L/kg): 4.14
O=C1OC(=O)c2c(Cl)c(Cl)c(Cl)c(Cl)c21,254 °C,–,ready biodegradability: not readily biodegradable
COCC(=O)N(c1c(C)cccc1C)C(C)C(=O)OC (stereo not drawn),–,–,log10 Koc (L/kg): 1.57; log10 vapour pressure (mmHg): -4.93; ready biodegradability: not readily biodegradable
